Experimental data from patent US11453660B2, “Androgen receptor and glucocorticoid receptor modulators” (ONCOSTELLAE, S.L., priority 2017, dated 2022).
Where a chain is given by its changes, count along the chain named.

Experiments:
Rat Androgen Receptor = target: T1, Rat Androgen Receptor (Rattus norvegicus, UniProt P15207); assay: Rat Androgen Receptor Binding (polarscreen AR competitor assay, fluorescence polarization); conditions: displacement of Fluormone AL Green, 4 hours at RT, read-out: AR rat-fluorimetric
T1 construct: purchased Life Technologies A15880
T1 sequence (P15207 646-902 limits assumed): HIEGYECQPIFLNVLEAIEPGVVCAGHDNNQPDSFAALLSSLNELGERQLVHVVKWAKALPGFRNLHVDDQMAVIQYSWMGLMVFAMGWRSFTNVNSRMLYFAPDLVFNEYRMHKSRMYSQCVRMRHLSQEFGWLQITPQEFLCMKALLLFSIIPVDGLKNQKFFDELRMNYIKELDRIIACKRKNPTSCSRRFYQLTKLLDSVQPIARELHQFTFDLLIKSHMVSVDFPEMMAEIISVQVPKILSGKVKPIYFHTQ
Procedure, shortened: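 Fluorescence-polarization competition of Fluormone AL Green binding to rat androgen receptor; compounds screened in duplicate at 1 and 10 μM, 4 h at RT, read at λexc 485/λem 535 nm. IC50 from 1:10 dilution series, 10 μM to 0.1 nM, in 1× buffer.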

human androgen receptor = target: T2, human androgen receptor (Homo sapiens, UniProt P10275, T878A); assay: Human Androgen Receptor Binding (radioligand binding, LnCap prostate cancer cell line); conditions: LnCap cells, displacement of [^3H]-methyltrienolone, 2 hours at 37° C.; read-out: AR LNCaP
T2 construct: endogenously expressed human androgen receptor using the LnCap prostate cancer cell line; endogenous in cells; host or cells: LNCaP prostate cancer cell line (whole cells)
T2 sequence (P10275 1-920 T878A): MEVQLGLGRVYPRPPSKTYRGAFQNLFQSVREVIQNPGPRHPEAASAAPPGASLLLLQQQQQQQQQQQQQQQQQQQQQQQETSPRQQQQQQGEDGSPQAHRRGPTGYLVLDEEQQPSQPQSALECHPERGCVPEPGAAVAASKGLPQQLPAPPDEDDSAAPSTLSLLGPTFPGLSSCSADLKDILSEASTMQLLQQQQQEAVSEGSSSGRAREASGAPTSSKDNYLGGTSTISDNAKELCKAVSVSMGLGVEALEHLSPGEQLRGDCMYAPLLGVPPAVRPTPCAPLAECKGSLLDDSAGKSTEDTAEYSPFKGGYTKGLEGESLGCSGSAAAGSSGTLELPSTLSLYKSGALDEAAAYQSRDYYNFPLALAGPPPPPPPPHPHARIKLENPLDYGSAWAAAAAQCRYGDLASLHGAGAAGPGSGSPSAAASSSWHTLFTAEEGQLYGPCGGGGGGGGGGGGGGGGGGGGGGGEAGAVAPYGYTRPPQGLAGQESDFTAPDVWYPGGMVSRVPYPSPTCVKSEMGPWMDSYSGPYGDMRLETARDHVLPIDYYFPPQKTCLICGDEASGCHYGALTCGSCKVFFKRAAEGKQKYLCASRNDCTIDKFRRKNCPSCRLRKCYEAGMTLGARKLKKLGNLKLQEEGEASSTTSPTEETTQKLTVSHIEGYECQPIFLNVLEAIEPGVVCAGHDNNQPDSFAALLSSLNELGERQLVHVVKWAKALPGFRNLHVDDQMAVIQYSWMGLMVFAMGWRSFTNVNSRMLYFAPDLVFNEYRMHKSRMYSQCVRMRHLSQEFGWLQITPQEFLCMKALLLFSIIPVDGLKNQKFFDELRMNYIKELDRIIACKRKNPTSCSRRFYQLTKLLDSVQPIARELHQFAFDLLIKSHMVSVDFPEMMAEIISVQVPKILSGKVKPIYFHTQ
Procedure, shortened: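 Whole-cell displacement of [3H]-methyltrienolone from endogenous AR (T878A) in LnCap cells, in RPMI with 0.1% BSA and triamcinolone acetonide. Compounds 10 μM to 0.1 nM in 1:10 steps, 2 h at 37 °C; cells washed, SDS-lysed, bound radioactivity by scintillation counting for IC50.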

[1] = target: T3, Human Glucocorticoid Receptor (Homo sapiens, UniProt P04150); assay: Competition Binding in IM-9 Human Glucocorticoid Receptor (GR IM-9); conditions: cytosol from IM-9 cell line, 1.5 nM [3H]-Dexamethasone, 4° C. for 6 hours
T3 construct: endogenous in cells; host or cells: cytosol from IM-9 cell line
T3 sequence (P04150 1-777): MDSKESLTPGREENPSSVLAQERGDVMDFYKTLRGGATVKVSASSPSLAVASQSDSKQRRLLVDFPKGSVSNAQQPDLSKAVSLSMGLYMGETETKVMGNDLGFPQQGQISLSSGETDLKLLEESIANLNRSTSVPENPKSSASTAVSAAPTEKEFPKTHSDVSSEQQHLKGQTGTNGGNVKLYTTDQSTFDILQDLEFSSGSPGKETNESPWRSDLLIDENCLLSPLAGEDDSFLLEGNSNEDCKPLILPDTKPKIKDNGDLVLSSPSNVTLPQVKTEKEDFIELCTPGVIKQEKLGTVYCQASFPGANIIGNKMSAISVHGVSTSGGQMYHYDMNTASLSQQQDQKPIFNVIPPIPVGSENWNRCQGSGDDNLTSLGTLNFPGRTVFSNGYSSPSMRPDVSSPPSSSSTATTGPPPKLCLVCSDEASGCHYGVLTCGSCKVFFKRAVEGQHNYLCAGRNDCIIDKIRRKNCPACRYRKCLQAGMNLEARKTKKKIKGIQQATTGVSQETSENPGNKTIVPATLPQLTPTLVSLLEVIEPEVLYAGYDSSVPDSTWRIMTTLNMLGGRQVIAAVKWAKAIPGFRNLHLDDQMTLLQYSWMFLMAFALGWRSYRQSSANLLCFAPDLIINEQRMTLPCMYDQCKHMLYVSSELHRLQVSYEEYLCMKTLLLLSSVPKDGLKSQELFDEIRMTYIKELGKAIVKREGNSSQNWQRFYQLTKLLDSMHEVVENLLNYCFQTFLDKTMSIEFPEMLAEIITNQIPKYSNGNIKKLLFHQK
Procedure, shortened: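 Radioligand competition using 100 μg IM-9 cell cytosol and 1.5 nM [3H]-dexamethasone, incubated 6 h at 4° C in TES/molybdate buffer, pH 7.4. Filtration on PEI-treated GF/B filters, scintillation counting; nonspecific binding defined with 10 μM triamcinolone.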

AR-Receptor = target: T4, AR-Receptor (Homo sapiens, UniProt P10275); assay: Functional Assay AR-Receptor (MDA-MB-453 cells, luciferase); format: cell-based; conditions: antagonist effect in the presence of DHT 1 nM, 24 h, luciferase luminescence, read-out: AR antag KB
T4 sequence (P10275 1-920 Q868H): T2 sequence (P10275 1-920 T878A) with Q868H, A878T
Protocol: Functional Assay AR-Receptor
MDA-MB-453 cells were cultured in DMEM (ATCC, ref 30-2002), 10% FBS, 1% penicillin, 1% streptomycin, 75 μg/ml gentamycin.
The day before performing assay, the cells were trypsinized and seeded in a 384-well plate (Greiner, ref 781098) (8000 cells/well) in 50 μl of complete culture medium. Cells were stores at 37° C. in a 5% CO2 atmosphere overnight.
The medium was replaced by 50 μl complete growth medium with 0.1% FBS. Compounds were dispensed with Echo 550 (Labcyte) and incubated for 24 h at 37° C. in a 5% CO2 atmosphere. Antagonist effect was measured in the presence of DHT 1 nM.
After incubation, assay medium removed and 20 μl of 1× Promega lysis buffer were added to each well. The plate was incubated 15 minutes at RT and quick-frozen to −80° C. and the thaw to room temperature. 50 μl of luciferase substrate (E4550, Promega) were added to each well and luminescence (integration time 1000 msec) was read in an EnSpire multilabel reader (Perkin Elmer).

| IC50 (Rat Androgen Receptor) [µM] | IC50 (human androgen receptor) [µM] | IC50 [1] [µM] | Kb (AR-Receptor) [µM] | Molecule |
| --- | --- | --- | --- | --- |
| < 0.1 | 0.1 to 1 | ≥ 1 | – | COC(=O)C1=C(N)NC(C)=C(C(C)=O)C1c1csc2ccccc12 (centres unmarked) [Example D1, Methyl 5-acetyl-2-amino-4-(benzo[b]thiophen-3-yl)-6-methyl-1,4-dihydropyridine-3-carboxylate] |
| < 0.1 | < 0.1 | < 0.1 | – | COC(=O)C1=C(C2CC2)NC(C)=C(C(C)=O)C1c1csc2ccc(F)cc12 (centres unmarked) [Example J22, Methyl 5-acetyl-2-cyclopropyl-4-(5-fluorobenzo[b]thiophen-3-yl)-6-methyl-1,4-dihydropyridine-3-carboxylate] |
| – | – | – | 0.1 to 1 | CC(=O)C1=C(C)NC(C2CC2)=C(C(=O)OCc2ccncc2)C1c1csc2ccc(Cl)cc12 (centres unmarked) [Example J34, Pyridin-4-ylmethyl 5-acetyl-4-(5-chlorobenzo[b]thiophen-3-yl)-2-cyclopropyl-6-methyl-1,4-dihydropyridine-3-carboxylate] |
| – | – | – | 0.1 to 1 | CC(=O)C1=C(C)NC(C)=C(C(=O)OCc2ccc(-c3ccncc3)nc2)C1c1csc2ncccc12 (centres unmarked) [Example L9, [2,4′-bipyridin]-5-ylmethyl 5-acetyl-2,6-dimethyl-4-(thieno[2,3-b]pyridin-3-yl)-1,4-dihydropyridine-3-carboxylate] |
| – | – | – | 0.1 to 1 | Benzyl 5-acetyl-4-(7-(methoxycarbonyl)benzo[b]thiophen-3-yl)-2,6-dimethyl-1,4-dihydropyridine-3-carboxylate [Example J38] |

The next lines start with the molecule.

| Molecule | IC50 (Rat Androgen Receptor) [µM] | IC50 (human androgen receptor) [µM] | IC50 [1] [µM] | Kb (AR-Receptor) [µM] |
| --- | --- | --- | --- | --- |
| COC(=O)C1=C(C(F)(F)F)NC(C)=C(C(C)=O)C1c1csc2ccccc12 (centres unmarked) [Example C14, Methyl 5-acetyl-4-(benzo[b]thiophen-3-yl)-6-methyl-2-(trifluoromethyl)-1,4-dihydropyridine-3-carboxylate] | 0.1 to 1 | < 0.1 | 0.1 to 1 | – |
| CC(=O)C1=C(C)NC(C)=C(C(=O)OCc2cccnc2)C1c1csc2ccc(F)cc12 (centres unmarked) [Example C57, Pyridin-3-ylmethyl 5-acetyl-4-(5-fluorobenzo[b]thiophen-3-yl)-2,6-dimethyl-1,4-dihydropyridine-3-carboxylate] | – | – | – | 0.1 to 1 |
| CC(=O)C1=C(C)NC(C)=C(C(=O)OCc2cccnc2)C1c1csc2ccc(Cl)cc12 (centres unmarked) [Example C60, Pyridin-3-ylmethyl 5-acetyl-4-(5-chlorobenzo[b]thiophen-3-yl)-2,6-dimethyl-1,4-dihydropyridine-3-carboxylate] | – | – | – | 0.1 to 1 |
| CC(=O)C1=C(C)NC(C)=C(C(=O)OCc2cccnc2)C1c1csc2ncccc12 (centres unmarked) [Example C61, Pyridin-3-ylmethyl 5-acetyl-2,6-dimethyl-4-(thieno[2,3-b]pyridin-3-yl)-1,4-dihydropyridine-3-carboxylate] | – | – | ≥ 1 | 0.1 to 1 |
| CC(=O)C1=C(C)NC(C)=C(C(=O)OCc2ccncc2)C1c1csc2ccc(Cl)cc12 (centres unmarked) [Example C62, Pyridin-4-ylmethyl 5-acetyl-4-(5-chlorobenzo[b]thiophen-3-yl)-2,6-dimethyl-1,4-dihydropyridine-3-carboxylate] | – | – | – | 0.1 to 1 |
| CC(=O)C1=C(C)NC(C)=C(C(=O)OCc2ccncc2)C1c1csc2ncccc12 (centres unmarked) [Example C64, Pyridin-4-ylmethyl 5-acetyl-2,6-dimethyl-4-(thieno[2,3-b]pyridin-3-yl)-1,4dihydropyridine-3-carboxylate] | – | – | ≥ 1 | 0.1 to 1 |
| CC(=O)C1=C(C)NC(C)=C(C(=O)OCc2ccc(Cl)nc2)C1c1csc2ncccc12 (centres unmarked) [Example C74, (6-chloropyridin-3-yl)methyl 5-acetyl-2,6-dimethyl-4-(thieno[2,3-b]pyridin-3-yl)-1,4-dihydropyridine-3-carboxylate] | – | – | 0.1 to 1 | ≥ 1 |
| CC(=O)C1=C(C)NC(C)=C(C(=O)OCc2cccc(N3CCOCC3)c2)C1c1csc2ncccc12 (centres unmarked) [Example C75, 3-morpholinobenzyl 5-acetyl-2,6-dimethyl-4-(thieno[2,3-b]pyridin-3-yl)-1,4-dihydropyridine-3-carboxylate] | – | – | 0.1 to 1 | ≥ 1 |
